Experimental data reported in ChEMBL document CHEMBL4184140, “Expanding the tetrahydroquinoline pharmacophore” (Bioorg Med Chem Lett, 2017).
Calls of active or inactive are those of the source. The calls are words filed in the database; no cut-off is given here.

Tested on: Mycobacterium tuberculosis variant bovis
Test: Antitubercular activity against Mycobacterium bovis
Format: functional, organism-based

| Structure (SMILES) | Activity |
| --- | --- |
| CC(=O)N1c2ccccc2[C@@H]2[C@@H](C[C@@H]3O[C@H]23)[C@H]1c1ccc(Cl)cc1 | inactive |
| C=CCO[C@@H]1[C@@H]2c3ccccc3N(C(C)=O)[C@H](c3ccccc3)[C@@H]2C[C@H]1N=[N+]=[N-] | inactive |
| CC(=O)N1c2ccccc2[C@@H]2[C@@H](C[C@@H]3O[C@H]23)[C@H]1c1ccccc1 | inactive |
| C=CCO[C@@H]1[C@@H]2c3ccccc3N(C(C)=O)[C@H](c3cccc(Br)c3)[C@@H]2C[C@H]1N=[N+]=[N-] | inactive |
| O[C@@H]1[C@@H]2c3cc(Br)ccc3N[C@H](c3ccccc3)[C@@H]2C[C@@H]1O | inactive |
| Fc1ccc2c(c1)N[C@H](c1ccccc1)[C@@H]1CC=C[C@H]21 | inactive |
| Cc1ccccc1[C@H]1Nc2ccccc2[C@H]2[C@@H](O)[C@@H](O)C[C@H]21 | inactive |
| CC(=O)N1c2ccccc2[C@H]2[C@@H](O)[C@H](N=[N+]=[N-])C[C@H]2[C@H]1c1ccccc1 | inactive |
| Clc1ccc([C@H]2Nc3ccccc3[C@H]3C=CC[C@H]32)cc1 | inactive |
| O[C@@H]1[C@@H]2c3ccccc3N[C@H](c3ccc(Cl)cc3)[C@@H]2C[C@@H]1O | inactive |
| O=[N+]([O-])c1ccc2c(c1)N[C@H](c1ccccc1)[C@@H]1C[C@H](O)[C@H](O)[C@H]21 | inactive |
| O=[N+]([O-])c1ccc2c(c1)N[C@H](c1ccccc1)[C@@H]1CC=C[C@H]21 | inactive |
| CC(=O)N1c2ccccc2[C@H]2C=CC[C@H]2[C@H]1c1cccc(Br)c1 | inactive |
| O[C@@H]1[C@@H]2c3ccccc3N[C@H](c3cccc(Br)c3)[C@@H]2C[C@@H]1O | inactive |
| CC(=O)N1c2cc([N+](=O)[O-])ccc2[C@H]2[C@@H](O)[C@H](N=[N+]=[N-])C[C@H]2[C@H]1c1ccccc1 | inactive |
| C1=C[C@@H]2c3ccccc3N[C@H](c3ccccc3)[C@@H]2C1 | inactive |
| CC(=O)N1c2ccccc2[C@@H]2[C@@H](C[C@@H]3O[C@H]23)[C@H]1c1cccc(Br)c1 | inactive |

| Structure (SMILES) | Activity |
| --- | --- |
| CC(=O)N1c2cc([N+](=O)[O-])ccc2[C@@H]2[C@@H](C[C@@H]3O[C@H]23)[C@H]1c1ccccc1 | inactive |
| C=CCO[C@H]1C(n2cc(-c3ccccc3)nn2)C[C@@H]2[C@H]1c1ccccc1N(C(C)=O)[C@@H]2c1ccccc1 (single isomer, unassigned) | inactive |
| CC(=O)N1c2ccccc2[C@H]2C=CC[C@H]2[C@H]1c1ccccc1C | inactive |
| O[C@@H]1[C@@H]2c3ccc(F)cc3N[C@H](c3ccccc3)[C@@H]2C[C@@H]1O | inactive |
| CC(=O)N1c2cc([N+](=O)[O-])ccc2[C@H]2C=CC[C@H]2[C@H]1c1ccccc1 | inactive |
| C=CCO[C@@H]1[C@@H]2c3ccccc3N(C(C)=O)[C@H](c3ccc(Cl)cc3)[C@@H]2C[C@H]1N=[N+]=[N-] | inactive |
| CC(=O)N1c2ccc(Br)cc2[C@H]2C=CC[C@H]2[C@H]1c1ccccc1 | inactive |
| CC(=O)N1c2ccccc2[C@H]2[C@@H](O)[C@H](N=[N+]=[N-])C[C@H]2[C@H]1c1cccc(Br)c1 | inactive |
| CC(=O)N1c2ccccc2[C@H]2C=CC[C@H]2[C@H]1c1ccc(Cl)cc1 | inactive |
| Cc1ccccc1[C@H]1Nc2ccccc2[C@H]2C=CC[C@H]21 | inactive |
| CC(=O)N1c2ccccc2[C@H]2C=CC[C@H]2[C@H]1c1ccccc1 | inactive |
| Brc1cccc([C@H]2Nc3ccccc3[C@H]3C=CC[C@H]32)c1 | inactive |
| CC(=O)N1c2ccccc2[C@H]2[C@@H](O)[C@H](N=[N+]=[N-])C[C@H]2[C@H]1c1ccc(Cl)cc1 | inactive |
| COC(=O)C[C@@H]1[C@H](C(=O)OC)c2ccccc2N(C(C)=O)[C@@H]1c1ccccc1 | inactive |
| Brc1ccc2c(c1)[C@H]1C=CC[C@H]1[C@@H](c1ccccc1)N2 | inactive |
| CC(=O)N1c2ccccc2[C@H]2[C@@H](O)[C@@H](O)C[C@H]2[C@H]1c1ccccc1 | inactive |
| O[C@@H]1[C@@H]2c3ccccc3N[C@H](c3ccccc3)[C@@H]2C[C@@H]1O | inactive |
